# pIC50: −log10 of the molar value.
# Legend:
# Type in all cases: cell-based
# Design in all cases: key to effect of inhibiting tumor cell growth: “+” represents that the compound has the effect of inhibiting tumor cell growth
# lung cancer cells (TC1) = assay: cytotoxicity assay in TC1 cells; details: for pIC50: TC-1
# Method: (§1) Please refer to FIG. 1A, FIG. 1B and Table 2, which show the analysis results of the compound of Formula (I) inhibiting ADAM9 activity. In FIG. 1A, Bm7 lung cancer cells were treated with the derivatives of the compound 6X-0310, and then cultured under anchorage-free culture condition. The expressions of ADAM9 and CDCP1 in Bm7 lung cancer cells were detected by Western blot, in which EF1α is an internal control, and mock represents Bm7 lung cancer cells without treatment. […] In the experiment, the compounds of Formula (I) of Example 1 to Example 32 were further performed cytotoxicity assay to measure the IC50 value of the compounds of Formula (I) of the present disclosure in lung cancer cell lines.
# [1] = system: lung cancer cells (Bm7brmx2-1st); assay: cytotoxicity assay in Bm7brmx2-1st cells
# Method: as §1
# HNOF = assay: cytotoxicity assay in HNOF cells; details: HNOF
# [2] = system: lung cancer cells (H1299); assay: cytotoxicity assay in H1299 cells; details: for effect of inhibiting tumor cell growth: H1299; for pIC50: Homo sapiens, NCI-H1299
# Method: as §1
# [3] = system: lung cancer cells (Bm7brmx2-2nd); assay: cytotoxicity assay in Bm7brmx2-2nd cells
# Method: as §1
# [4] = system: lung cancer cells (Bm7brmx2); assay: cytotoxicity assay in Bm7brmx2 cells
# Method: as §1
# [5] = cytotoxicity assay in 293 cells; details: 293
# lung cancer cells (A549) = assay: cytotoxicity assay in A549 cells; details: for pIC50: Homo sapiens
# Method: as §1
# [6] = cytotoxicity assay in HNOF cells; details: human, HNOF cells
# [7] = system: kidney cancer cells (293); assay: cytotoxicity assay in 293 cells; details: Homo sapiens, HEK293
Structure (SMILES),effect of inhibiting tumor cell growth (lung cancer cells (TC1)),effect of inhibiting tumor cell growth [1],effect of inhibiting tumor cell growth (HNOF),effect of inhibiting tumor cell growth [2],effect of inhibiting tumor cell growth [3],effect of inhibiting tumor cell growth [4],effect of inhibiting tumor cell growth [5],effect of inhibiting tumor cell growth (lung cancer cells (A549)),pIC50 (lung cancer cells (TC1)),pIC50 [1],pIC50 [6],pIC50 [2],pIC50 [3],pIC50 [4],pIC50 [7],pIC50 (lung cancer cells (A549))
O=C1c2ccccc2C(=O)N1CCc1csc(OCc2cc(F)c(F)c(F)c2)n1 [13W-0300],+,+,+,+,+,+,+,+,,,,,,,,
O=C1c2ccccc2C(=O)N1CCc1csc(COc2cccc(C(F)(F)F)c2)n1 [12W-0232],+,+,+,+,+,+,+,+,4.00,< 4.30,3.99,3.92,4.11,3.86,4.13,3.73
COc1ccc(C(=O)Nc2nc(CCN3C(=O)c4ccccc4C3=O)cs2)cc1OC [5X-0314],+,+,+,+,+,+,+,+,3.69,4.29,4.07,3.94,4.04,4.18,4.31,3.74
O=C1c2ccccc2C(=O)N1CCc1csc(N2CCCCC2)n1 [13W-0306],+,+,+,+,+,+,+,+,,,,,,,,
O=C1c2ccccc2C(=O)N1CCc1csc(Nc2ccc(Cl)c(Cl)c2)n1 [2X-0336],+,+,+,+,+,+,+,+,4.25,4.42,4.10,4.00,4.20,3.93,4.23,3.89
O=C(Nc1nc(CCN2C(=O)c3ccccc3C2=O)cs1)c1ccc([N+](=O)[O-])cc1 [6X-0202],+,+,+,+,+,+,+,+,3.90,4.16,4.11,3.47,2.90,< 3.90,4.32,3.12
O=C1c2ccccc2C(=O)N1CCc1csc(-c2cc3ccccc3[nH]2)n1 [13W-0303],+,+,+,+,+,+,+,+,,,,,,,,
N#C/C(=C/c1ccc(OCc2ccccc2)cc1)c1nc(CCN2C(=O)c3ccccc3C2=O)cs1 [4X-0301],+,+,+,+,+,+,+,+,4.14,4.21,4.11,3.99,3.51,3.89,4.31,3.79
O=C1c2ccccc2C(=O)N1CCc1csc(-c2ccc(F)cc2)n1 [12W-0272],+,+,+,+,+,+,+,+,3.08,3.89,3.22,3.07,3.58,3.41,3.87,3.75
N#C/C(=C\C=C\c1ccccc1)c1nc(CCN2C(=O)c3ccccc3C2=O)cs1 [6X-0311],+,+,+,+,+,+,+,+,< 3.90,< 4.30,3.39,3.30,3.23,< 3.90,3.64,3.68
N#C/C(=C\c1ccncc1)c1nc(CCN2C(=O)c3ccccc3C2=O)cs1 [4X-0314],+,+,+,+,+,+,+,+,3.76,2.85,3.82,1.42,1.80,3.70,3.57,3.28
CC(C)CN1CCCc2cc(/C=C(\C#N)c3nc(CCN4C(=O)c5ccccc5C4=O)cs3)ccc21 [4X-0311],+,+,+,+,+,+,+,+,3.46,4.46,4.09,< 3.90,4.06,4.22,4.20,3.62
O=C1c2ccccc2C(=O)N1CCc1csc(SCc2ccc(C(F)(F)F)cc2)n1 [13W-0301],+,+,+,+,+,+,+,+,,,,,,,,
O=C1CCC(=O)C1c1nc(CCN2C(=O)c3ccccc3C2=O)cs1 [13W-0307],+,+,+,+,+,+,+,+,,,,,,,,
O=C(c1nc(CCN2C(=O)c3ccccc3C2=O)cs1)C(O)c1cc2ccccc2o1 (centres unmarked) [13W-0302],+,+,+,+,+,+,+,+,,,,,,,,
O=C1c2ccccc2C(=O)N1CCc1csc(N2C(=O)c3ccccc3C2=O)n1 [13W-0305],+,+,+,+,+,+,+,+,,,,,,,,

# Reference: patent publication US20220202783A1, “Use Of ADAM9 Inhibitor As Immunomodulator” (China Medical University, priority 2019, published 2022)
